# Patent US20080280837A1, “Biologically Active Compounds with Anti-Angiogenic Properties” (priority 2004, published 2008)
# Where “and” joins values, the source holds several entries; their conditions need not be identical. Equal entries are not always repeated.
# Columns and labels:
# [1] = test system: chicken embryo chorioallantoic membrane (CAM) vasculature; test: Early chicken embryo chorioallantoic membrane (earlyCAM) assay; assay type: in vivo; settings: for Aretry length (pixels) / CAM increase (fold) / Relative artery length (absolute vessel length (pixels)/CAM area (pixels)) / Relative total vessel length (absolute vessel length (pixels)/CAM area (pixels)) / Relative vein length (absolute vessel length (pixels)/CAM area (pixels)) / Total vessel length (pixels) / Vein diameter (pixels) / Vein length (pixels): mean ± SEM, n = 8
# Experimental: Vein diameter was included as a measure of vessel growth. Where there was more than one major vein branch, the diameters of both were added together to give a total vein diameter. In the control CAM there were two well developed vein branches of similar diameter. In contrast, in the treated CAM there was a single major vein branch. Total vein diameter is 239 pixels in the control CAM, and only 107 pixels in the treated CAM.
# When “compound 1” was applied to the CAM, there were dose responsive reductions in CAM growth and vasculature. The effects on CAM growth and vessel parameters were expressed as pixel measures (Table 1) and also as a percentage of the vehicle treated control group (FIG. 1). Vein lengths were reduced at all dose levels of “compound 1”, both in pixel and percentage terms, with a reduction to 67% of control at 5 nmol (p<0.05). […] When artery and vein lengths were combined to give total vessel length there was a significant reduction at the 5 nmol level (FIG. 1; p<0.05). A strong trend to reduced CAM growth with increasing doses of “compound 1” was also present.
# SSTR-2 = biological target: T1, SSTR-2 (Homo sapiens, UniProt P30874); test: Radioligand binding screen against somatostatin subtype SSTR-2
# T1 construct: expressed in transfected cells
# Experimental: (§1) Receptor membrane preparations containing the desired cloned receptor (for example cloned human somatostatin receptor subtype 5, SSTR5) and radio-labeled ligand (for example 3-[^125I]iodotyrosyl^11 Somatostatin-14)) were diluted at the concentration required for testing and according to the specific parameters associated with the selected receptor-ligand combination, including receptor Bmax, ligand Kd and any other parameters necessary to optimize the experimental conditions. When tested for competition activity to the reference ligand, “compound 1” was mixed with membrane suspension and the radiolabeled reference ligand (with or without an excess of cold ligand to the receptor for determination of non-specific binding) and incubated at the temperature required by internal standard operating procedures. Following incubation, the binding reaction was stopped by the addition of ice-cold washing buffer and filtered on appropriate filters, which are then counted. Data analysis and curve-fitting was performed with XLfit (IDBS).
# (§2) 10 mM solutions of test compounds in 100% DMSO were prepared. ˜160 μl was used for each dilution (20 μl/well in triplicate).
# (§3) A 1.25 mM assay stock was prepared by making a 1:8 dilution of the 10 mM solution. (To 30 μL of the 10 mM solution was added 210 μL milli-Q H2O. A 1:5 dilution series in milli-Q H2O was then prepared.
# (§4) In primary screening experiments compounds were tested in duplicate for a particular concentration.
# SSTR-4 = biological target: T2, SSTR-4 (Homo sapiens, UniProt P31391); test: Radioligand binding screen against somatostatin subtype SSTR-4 (SST4 assay); settings: concentration required to displace 50% of the competitive radioligand; read-out: IC50 SSTR4
# T2 construct: expressed in transfected cells
# Experimental: as §1, §2, §3
# Assays were performed in triplicate at each concentration within the 1:5 dilution series: 250 μM, 50 μM, 10 μM, […], 0.4 μM, 0.08 μM, 0.016 μM, 0.0032 μM, etc. (for SST4 assay) and 125 μM, 10 μM, 2 μM, 1 μM, 0.5 μM, etc (for SST5 assay).
# as §4
# [2] = test system: MV522 human NSCLC tumour xenograft; test: Nude mouse model of human MV522 non-small cell lung cancer tumours; assay type: in vivo, nude mice
# Experimental: Initial Maximum Tolerated Dose (MTD) studies were done in male nude mice to determine the appropriate intravenous dosing regimen for the MV522 human NSCLC tumour model. A range of doses between 0 and 50 mg/Kg for 28 days (qdx28) were tested. Mice were randomized into groups with 5 animals per group including vehicle control. Animals were weighed twice weekly starting on day one and observed daily for adverse reactions or toxicity due to the agent. MTD studies determined the selection of 20 mg/kg and 35 mg/kg for intravenous dosing once per day for 28 days in the MV522 human NSCLC tumour xenograft model.
# Male nude mice (nu/nu) between 5 and 6 weeks of age weighing approximately 20 g were implanted subcutaneously (s.c) by trocar with fragments of MV522 human tumour carcinomas harvested from s.c growing tumours in host mice. MV-522 is a metastatic human lung adenocarcinoma line. When tumours reached approximately 72 mg in size animals were pair matched into treatment and control groups with 10 mice in each group. Each mouse was tagged and followed individually throughout the experiment.
# “Compound 1” was administered i.v. in a saline vehicle from day one. Vehicle control group animals were administered saline i.v. There were nine treatment groups including the vehicle control group. […]
# At the end of the treatment period the mice were weighed and sacrificed. Each tumour was excised and weighed and a mean actual tumour weight (mg) per group was calculated along with the mean actual volume (mm^3). […] Mean tumour regression was determined using the formula [1−(mean actual tumour weightFINAL/mean tumour weightDAY 1)×100%].
# T1 sequence (P30874 whole entry): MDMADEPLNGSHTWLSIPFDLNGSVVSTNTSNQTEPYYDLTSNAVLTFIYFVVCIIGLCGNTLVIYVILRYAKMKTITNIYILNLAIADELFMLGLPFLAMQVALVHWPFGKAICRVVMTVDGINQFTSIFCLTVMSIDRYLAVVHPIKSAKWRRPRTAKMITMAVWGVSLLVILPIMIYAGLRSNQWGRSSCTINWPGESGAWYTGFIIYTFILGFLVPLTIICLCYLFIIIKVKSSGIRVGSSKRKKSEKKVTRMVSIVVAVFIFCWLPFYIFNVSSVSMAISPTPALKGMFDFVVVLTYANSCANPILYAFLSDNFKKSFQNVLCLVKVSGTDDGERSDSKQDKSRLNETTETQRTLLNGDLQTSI
# T2 sequence (P31391 whole entry): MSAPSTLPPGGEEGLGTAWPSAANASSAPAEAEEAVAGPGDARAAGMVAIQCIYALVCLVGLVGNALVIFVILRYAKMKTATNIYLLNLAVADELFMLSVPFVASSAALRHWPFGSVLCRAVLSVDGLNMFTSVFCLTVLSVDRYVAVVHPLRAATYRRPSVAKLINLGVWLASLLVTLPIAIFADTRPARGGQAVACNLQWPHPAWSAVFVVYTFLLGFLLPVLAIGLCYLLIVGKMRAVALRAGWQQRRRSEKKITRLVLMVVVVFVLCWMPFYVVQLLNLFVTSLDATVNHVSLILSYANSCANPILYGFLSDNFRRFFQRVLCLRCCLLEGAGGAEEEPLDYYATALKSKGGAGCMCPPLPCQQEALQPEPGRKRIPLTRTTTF
compound,measurement,setting,value
COC[C@H]1O[C@H](OCCc2ccccc2)[C@H](NC(=O)CCCN)[C@@H](OCc2ccc3ccccc3c2)[C@@H]1O [Compound 1],Aretry length (pixels),[1]; 0.2 nmol,1870 ± 109^ pixels
same,CAM increase (fold),[1]; 0.2 nmol,9.9 ± 0.9 fold
same,Relative artery length (absolute vessel length (pixels)/CAM area (pixels)),[1]; 0.2 nmol,43.0 ± 3.7
same,Relative total vessel length (absolute vessel length (pixels)/CAM area (pixels)),[1]; 0.2 nmol,79.9 ± 5.8
same,Relative vein length (absolute vessel length (pixels)/CAM area (pixels)),[1]; 0.2 nmol,36.9 ± 3.4
same,Total vessel length (pixels),[1]; 0.2 nmol,3498 ± 222^ pixels
same,Vein diameter (pixels),[1]; 0.2 nmol,191 ± 10 pixels
same,Vein length (pixels),[1]; 0.2 nmol,1628 ± 183^ pixels
same,Artery length as percentage of vehicle treated control (maximal reduction),[1]; 1 nmol,86 % of control
same,Aretry length (pixels),[1]; 1 nmol,1544 ± 214^ pixels
same,CAM increase (fold),[1]; 1 nmol,9.9 ± 0.8 fold
same,Relative artery length (absolute vessel length (pixels)/CAM area (pixels)),[1]; 1 nmol,34.7 ± 4.7
same,Relative total vessel length (absolute vessel length (pixels)/CAM area (pixels)),[1]; 1 nmol,71.3 ± 6.3
same,Relative vein length (absolute vessel length (pixels)/CAM area (pixels)),[1]; 1 nmol,36.5 ± 2.4
same,Total vessel length (pixels),[1]; 1 nmol,3169 ± 341^ pixels
same,Vein diameter (pixels),[1]; 1 nmol,187 ± 15 pixels
same,Vein length (pixels),[1]; 1 nmol,1625 ± 166^1 pixels
same,Reduction in vein diameter versus control,[1]; 5 nmol,approximately 25%
same,Aretry length (pixels),[1]; 5 nmol,1510 ± 196^ pixels
same,CAM increase (fold),[1]; 5 nmol,8.9 ± 0.8 fold
same,Relative artery length (absolute vessel length (pixels)/CAM area (pixels)),[1]; 5 nmol,36.4 ± 3.0
same,Relative total vessel length (absolute vessel length (pixels)/CAM area (pixels)),[1]; 5 nmol,71.6 ± 3.7
same,Relative vein length (absolute vessel length (pixels)/CAM area (pixels)),[1]; 5 nmol,35.1 ± 2.6
same,Total vessel length (pixels),[1]; 5 nmol,2939 ± 292^1 pixels
same,Vein length (pixels),[1]; 5 nmol,1429 ± 141^1 pixels
same,Vein diameter (pixels),"[1]; 5 nmol, p = 0.057",157 pixels and 157 ± 23 pixels
same,Vein length as percentage of vehicle treated control,"[1]; 5 nmol, p<0.05",67 % of control
same,Total vein diameter,"[1]; single treated CAM (control CAM 239 pixels), dose not stated",107 pixels
same,IC50,"SSTR-2; concentration required to displace 50% of the competitive radioligand, read-out: IC50 SSTR2",7.5 µM
same,selectivity SSTR2,SSTR-2; normalized IC50: lowest IC50 for a compound = 1,23.2
same,Hillslope SSTR2,SSTR-2; slope of binding curve,1.2
same,IC50,SSTR-4,> 12.5 µM
same,Tumour growth inhibition (TGI),[2]; group nine: 35 mg/kg compound 1 i.v. qdx28 and paclitaxel 16 mg/kg i.p. qdx5,75.1%
same,Tumour growth inhibition (TGI),[2]; group seven: 20 mg/kg compound 1 i.v. qdx28 and paclitaxel 16 mg/kg i.p. qdx5,56.9%
